biological target: Alpha-(1,3)-fucosyltransferase 10 (Homo sapiens) (UniProt Q6P4F1); test: (§1) Acceptor substrate specificity toward Fucosyltransferase for the galactosides of GlcNAc with beta 1,3 or beta 1,4-linkages

Row | Relative activity | Molecule
1 | 120 | LACTOSE, ANHYDROUS

biological target: T1, Alpha-(1,3)-fucosyltransferase 10 (Homo sapiens) (UniProt Q6P4F1); test: as §1
T1 sequence (whole entry): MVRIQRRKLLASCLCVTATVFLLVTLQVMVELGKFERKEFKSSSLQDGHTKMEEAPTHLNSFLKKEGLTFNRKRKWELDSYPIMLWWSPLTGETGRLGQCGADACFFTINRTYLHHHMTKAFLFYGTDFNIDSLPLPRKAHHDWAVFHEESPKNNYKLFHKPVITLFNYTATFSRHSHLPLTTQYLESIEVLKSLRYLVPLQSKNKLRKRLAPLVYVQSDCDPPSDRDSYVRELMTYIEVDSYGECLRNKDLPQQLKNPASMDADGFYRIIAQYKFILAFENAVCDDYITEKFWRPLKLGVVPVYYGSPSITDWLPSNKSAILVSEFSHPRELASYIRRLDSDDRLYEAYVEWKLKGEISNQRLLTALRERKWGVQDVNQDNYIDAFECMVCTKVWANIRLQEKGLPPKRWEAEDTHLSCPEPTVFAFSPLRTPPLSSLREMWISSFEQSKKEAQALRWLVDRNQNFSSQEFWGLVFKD

Row | Molecule | Relative activity
2 | CC(=O)N[C@H]1[C@@H](O[C@@H]2O[C@@H](CO)[C@H](O)[C@H](O)[C@@H]2O)[C@H](O)[C@H](CO)O[C@H]1O | 580
3 | CC(=O)N[C@@H]1[C@H](O[C@H]2[C@H](O)[C@H](NC(C)=O)C(O)O[C@H]2CO)O[C@@H](CO)[C@@H](O)[C@@H]1O (stereo not given in full) | 23
4 | C=CCO[C@@H]1O[C@@H](CO)[C@@H](O)[C@H](O)[C@@H]1O | < 1
5 | OC[C@@H]1OC(O)[C@@H](O)[C@H](O)[C@H]1O (stereo not given in full) | 3
6 | OC[C@@H]1OC(O)[C@@H](O)[C@H](O)[C@@H]1O (stereo not given in full) | 7
7 | OC[C@@H]1O[C@@H](O[C@H]2[C@H](O)[C@H](O)[C@H](O)S[C@H]2CO)[C@@H](O)[C@@H](O)[C@H]1O | 310
8 | CC(=O)N[C@@H]1[C@@H](O)[C@H](O[C@@H]2O[C@H](CO)[C@H](O)[C@H](O)[C@H]2O)[C@@H](CO)O[C@H]1O | 27
9 | OC[C@H]1OC(O)[C@H](O)[C@@H](O)[C@@H]1O (stereo not given in full) | 5
10 | OC[C@H]1OC=C[C@@H](O)[C@H]1O | 2

Next, values leading:

Row | Relative activity | Molecule
11 | 5 | OC[C@H]1NC[C@H](O)[C@@H](O)[C@@H]1O
12 | 4 | CC(=O)N[C@H]1C(O)O[C@H](CO)[C@H](O)[C@@H]1O (stereo not given in full)
13 | 13 | CC(=O)N[C@@H]1[C@H](OC[C@@H]2O[C@@H](O[C@H]3[C@H](O)[C@H](O)C(O)O[C@H]3CO)[C@@H](O)[C@@H](O)[C@H]2O)O[C@@H](CO)[C@@H](O)[C@@H]1O (stereo not given in full)
14 | 60 | CC(=O)N[C@H]1[C@H]([C@H](O)[C@H](O)CO)O[C@@](O[C@@H]2[C@H](O)[C@H](O[C@H]3[C@H](O)[C@H](NC(C)=O)C(O)O[C@H]3CO)O[C@@H](CO)[C@@H]2O)(C(=O)O)C[C@H]1O (stereo not given in full)
15 | 7 | OC[C@H]1S[C@H](O)[C@H](O)[C@@H](O)[C@@H]1O
16 | 250 | C[C@@H]1O[C@@H](O[C@@H]2[C@H](O[C@H]3[C@H](O)[C@H](O)[C@@H](O)O[C@H]3CO)O[C@@H](CO)[C@H](O)[C@@H]2O)[C@@H](O)[C@@H](O)[C@@H]1O
17 | 3 | CC(=O)N[C@H]1C(O)O[C@H](CO)[C@@H](O)[C@@H]1O (stereo not given in full)
18 | 6 | O=C[C@H](O)[C@@H](O)[C@@H](O)[C@H](O)CO
19 | 7 | OC[C@H]1OC=C[C@@H](O)[C@@H]1O

biological target: T1, Alpha-(1,3)-fucosyltransferase 10 (Homo sapiens); test: Compound was evaluated for acceptor substrate specificity toward Fucosyltransferase for the galactosides of GlcNAc with beta 1,3 or beta 1,4-linkages when applied 2 uM of GDP-Fuc consumed per hr.

Row | Relative activity | Molecule
20 | 100 | CC(=O)N[C@@H]1[C@@H](O)[C@H](O[C@@H]2O[C@H](CO)[C@H](O)[C@H](O)[C@H]2O)[C@@H](CO)O[C@H]1O
